Measurements: patent publication US4115453A (Miles Laboratories, Inc., priority 1977, dated 1978)

Assays:
tracheal smooth muscle = settings: in vitro; cited from earlier work
[1] = test system: female reproductive system; settings: cited from earlier work
gastric secretion = experiment: Test B: Inhibition of Rodent Gastric Secretion (pylorus-ligated rat); type: in vivo; settings: subcutaneous, 2 x 1.5 mg/kg (total 3.0 mg/kg), 4 hours after pyloric ligation
Description: A procedure based on that described by Lipmann (J. Pharm. Pharmacol., 21:335 [ 1968]) was used to assess the influence of test compounds on gastric secretion. Rats of one sex weighing 150 to 200 g were randomly divided into groups of six animals each and fasted for 48 hours previously to the experiments, water being available adlibitum. The animals were anesthetized with ether, the abdomen was opened through a midline incision and the pylorus was ligated. Test compounds were diluted from stock solution so as to administer a dose of 1.5 mg/kg in a volume equivalent to 1 ml/kg. Subcutaneous injections were applied immediately after surgery and again 2 hours later, so that a total dose of 3.0 mg/kg was administered. Dilutions were made with phosphate buffer (pH 7.38) as recommended by Lee et al. (Prostaglandins 3:29 [ 1973]), in order to insure adequate stability of drugs at the subcutaneous depot. Each compound was tested in one group of rats; an additional control group received only the vehicle.
Four hours after pyloric ligation the animals were killed with ether, the cardias ligated and the stomachs removed. The volume of gastric secretion was measured and the contents centrifuged at 5000 rpm for 10 minutes. Total acid in the supernatant was titrated against a 0.1 N sodium hydroxide solution and the amount expressed in mEq.
Volume and total acid values of the treated group were compared with those of the controls by the "T" test. Antisecretory activity was scored according to the following scale: […]

blood pressure = experiment: Test D: Decrease in Normal Feline Blood Pressure and Heart Rate (anesthetized cat); type: in vivo; settings: intravenous, 0.01 to 10.0 mcg/kg, judged only on hypotension
Description: The acute effects of test compounds on blood pressure and heart rate were determined in cats of either sex anesthetized with a mixture of pentobarbital sodium (35 mg/kg, i.v.) and barbital sodium (100 mg/kg, i.v.). Cannulas were placed in the trachea to allow adequate spontaneous ventilation, in a femoral artery for blood pressure recording with a strain gage transducer, and in a saphenous vein for drug administration. Heart rate was recorded by means of a cardiotachometer driven by the R wave of the electrocardiogram. After a period of 10 minutes of stable recordings of blood pressure and heart rate, the test compound was administered intravenously at doses increasing from 0.01 to 10.0 mcg/kg, spaced one log and injected at 10 minutes intervals. All doses were injected in a volume of 0.1 ml/kg. Modifications of blood pressure and heart rate induced by the test compound were expressed both in absolute units (mmHg and beats/minutes) and as percent of values recorded immediately before administration of each dose. Biphasic responses were tabulated in the order in which they occur. The direction of the observed changes was also noted (+ for increases and - for decreases).
Activity of compounds in this test was judged only on the basis of the degree of hypotension observed. Thus, the ED50 mmHg (dose decreasing blood pressure by 50 mmHg) was calculated graphically and the compound scored according to the following scale: […]

[2] = test system: human platelet aggregation; experiment: Test A: Inhibition of Human Platelet Aggregation; type: cell-based; settings: human platelet rich plasma, in vitro, collagen-induced, 37° C, 15 minutes
Description: The ability of test compounds to inhibit platelet aggreagation was determined by a modification of the turbidometric technique of Born (Nature, 194: 927 [1962]). Blood was collected from human volunteer who had not ingested aspirin or aspirin-containing products within the preceding two weeks in heparinized containers and was allowed to settle for one (1) hour. The platelet rich plasma (prp) supernates were collected and cooled. Siliconized glassware was used throughout.
In a representative assay 1.9 ml of PRP and 0.2 ml of test compound at the appropriate concentrations (0.001 to 100 mcgm), or 0.2 ml of distilled water (control procedure) were placed in sample cuvettes. The cuvettes were placed in a 37° C incubation block for 15 minutes, and then in a spectrophotometer linked to a strip chart recorder. After 30-60 seconds, 0.2 ml of a solution, prepared by diluting a calf-skin collagen solution 1:9 with Tyrodes' Solution, was added to each cuvette. Platelet aggregation was evidenced by a decrease in optical density.
An ED50 value was then determined graphically.

femoral blood flow = experiment: Test C: Increase in Canidae Femoral Blood Flow; type: in vivo; settings: anesthetized dog, intraarterial, 0.001 to 10 mcg
Description: The peripheral vasodilator or constrictor effects of test compounds were determined in mongrel dogs of either sex, weighing between 10 and 20 kg anesthestized intravenously with 35 mg/kg of sodium pentobarbital. An external iliac artery was dissected immediately above the femoral arch for a length of approximately 5 cm and a previously calibrated, non-connulating electromagnetic flowmeter sensor with a lumen between 2.5 and 3.5 mm was placed snugly around the vessel. Cannulas were placed in a branch of the artery arising distally to the location of the flowmeter sensor for intraarterial drug administrations, in the contralateral femoral artery for systemic blood pressure recordings and in the trachea for artificial respiration with room air. Femoral blood flow and systemic blood pressure were continuously recorded with an electromagnetic flowmeter and pressure tranducer, respectively.
After an adequate control period, test compounds were injected intraarterially at one log-spaced doses ranging from 0.001 to 10 mcg., in a volume of 0.5 ml and at 5 to 10 minute intervals. Maximum changes in bloodflow, as well as any variations in blood pressure, were tabulated for each dose in absolute values (ml/min. and mmHg). The calculations were made taking as control values those existing immediately before administration of each dose. The direction of the observed change (plus for increase and minus for decrease) was also noted. The dose changing bloodflow by 100 ml/min (ED100 ml/min) was calculated graphically and was used for scoring activity as follows: […]

[3] = test system: human platelet aggregation; settings: result in words; cited from earlier work
blood platelets = settings: in vitro; cited from earlier work
[4] = test system: smooth muscle of the vas deferens; settings: cited from earlier work

Row | Molecule | effect on tracheal smooth muscle (tracheal smooth muscle) | spontaneous abortions ([1]; early pregnancy) | effect on fertility / gestation ([1]; female reproductive system) | Activity Value Test B (% decrease in acidity) (gastric secretion) | Activity Value Test D (ED50 mmHg, dose decreasing blood pressure by 50 mmHg) (blood pressure) | Activity Value Test A (ED50, inhibition of platelet aggregation) [2] | Activity Value Test C (ED100 ml/min, dose changing bloodflow by 100 ml/min) (femoral blood flow) | inhibition of platelet aggregation by natural prostaglandins [3] | thrombogenesis (blood platelets) | contraction of the smooth muscle of the vas deferens [4]
1 | CCCCC[C@H](O)/C=C/[C@H]1[C@H](O)CC(=O)[C@@H]1C/C=C\CCCC(=O)O [PGE2] | relax |  |  |  |  |  |  |  |  | 
2 | CCCCC[C@H](O)/C=C/[C@@H]1[C@@H](C/C=C\CCCC(=O)O)[C@@H](O)C[C@H]1O [PGF2α] | contracts the smooth muscle | induces spontaneous abortions in early pregnancy | contragestational effects |  |  |  |  |  |  | 
3 | dl-7-{5-oxo-2R[3R-hydroxy-2-(bicyclo[3.2.0]hept-3-yl)-1E-propenyl]cyclopent- [TR-4101] |  |  |  | 1 (26-50, not significant) | 1 (1.01 - 10.0) | 1 (>1.0) | 3 (0.01 - 0.1) |  |  | 
4 | O=C(O)CCCCCC[C@H]1C(=O)CC[C@@H]1/C=C/[C@H](O)C1CC2CCC2C1 (mixture of isomers) [TR-4096, dl-7-{5-oxo-2R[3R-hydroxy-3-(bicyclo[3.2.0]hept-3-yl)-1E-propenyl[cyclopent-1R-yl}heptanoic acid] |  |  |  | 0 (<26) | 0 (>10.0) | 1 (>1.0) | 2 (0.11 - 1.0) |  |  | 
5 | COC(=O)CCCCCC[C@H]1C(=O)C[C@@H](O)[C@@H]1/C=C/[C@@H](O)C1CC2CCC2C1 (stereo partly drawn) [TR-4099, methyl 7-{3R-hydroxy-5-oxo-2R-[2S-hydroxy-3-(bicyclo[3.2.0]hept-3-yl)-1E-propenyl]cyclopent-1R-yl)heptanoae] |  |  |  | 1 (26-50, not significant) | 0 (>10.0) | 2 (>0.1≤1.0) | 0 (>10.0) |  |  | 
6 | COC(=O)CCCCCC[C@H]1C(=O)C[C@@H](O)[C@@H]1/C=C/[C@H](O)CCCCC1CCCC2CCCCC21 (stereo partly shown) [TR-4166] |  |  |  | 0 (<26) | 0 (>10.0) | 1 (>1.0) | 0 (>10.0) |  |  | 
7 | CCCCC[C@H](O)/C=C/[C@H]1[C@H](O)CC(=O)[C@@H]1CCCCCCC(=O)O [PGE1, prostaglandin E1] | relax |  |  |  |  |  |  | displays a similar activity | inhibits thrombogenesis in vitro | contracts the smooth muscle of the vas deferens
8 | COC(=O)CCCCCC[C@H]1C(=O)C=C[C@@H]1/C=C/[C@H](O)CCCCC1CCC2CCC1C2 (stereo partly drawn) [TR-4119, methyl 7-{5-oxo-2R-[3R-hydroxy-7-(bicyclo[3.2.1]oct-2-yl)-1E-hepentyl]cyclopent-3-en-1R-yl}heptanoate] |  |  |  | 0 (<26) | 0 (>10.0) | 1 (>1.0) | 0 (>10.0) |  |  | 
